Values quoted from earlier work, collected in article PMC5314429, “Enhancing PET Signal at Target Tissue in Vivo: Dendritic and Multimeric Tris(hydroxypyridinone) Conjugates for Molecular Imaging of αvβ3 Integrin Expression with Gallium-68” (Bioconjugate Chemistry, 2016).

Set-up: method as in PMID 16821777

CC(=O)NC(CCC(=O)NCc1c(O)c(=O)cc(C)n1C)(CCC(=O)NCc1c(O)c(=O)cc(C)n1C)CCC(=O)NCc1c(O)c(=O)cc(C)n1C [THP-Ac]
log K1 for Fe^3+: 32.52
pFe^3+ (pH 7.4, [Fe^3+] = 10^–6 M, [Ligand] = 10^–5 M): 28.47
